Measured values from PubChem BioAssay AID212 (DTP/NCI, 2004).
“And” between values parts separate entries of the source, which are not always exact repeats. Equal entries are not always repeated. Inconclusive results are not listed.

System: BDF1 mice, colon carcinoma 38 sc, T/C %
Assay: NCI In Vivo Anticancer Drug Screen. Data for tumor model Colon Carcinoma 38 (subcutaneous) in B6D2F1 (BDF1) mice
Conditions: endpoint: median tumor weight (est.), higher = larger tumour
Method in brief: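 T/C readout: treated group (T) measurement over vehicle control group (C) measurement. Endpoint is survival or tumor size in mice bearing a transplanted tumor.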

[1] = dose: 12.5 mg/kg/injection, schedule: Q07DX002 (ip), vehicle: saline with Tween-80
[2] = dose: 25.0 mg/kg/injection, schedule: Q07DX002 (ip), vehicle: saline with Tween-80
[3] = dose: 100.0 mg/kg/injection, schedule: Q07DX002 (ip), vehicle: saline with Tween-80
[4] = dose: 400.0 mg/kg/injection, schedule: Q07DX002 (ip), vehicle: saline with Tween-80
[5] = dose: 12.5 mg/kg/injection, schedule: Q07DX002 (ip), vehicle: saline
[6] = dose: 50.0 mg/kg/injection, schedule: Q07DX002 (ip), vehicle: saline
[7] = dose: 100.0 mg/kg/injection, schedule: Q07DX002 (ip), vehicle: saline
[8] = dose: 50.0 mg/kg/injection, schedule: Q07DX002 (ip), vehicle: saline with Tween-80
[9] = dose: 200.0 mg/kg/injection, schedule: Q07DX002 (ip), vehicle: saline with Tween-80

With NC(=O)CC(N)C(=O)O (centres undefined) the T/C (dose: 50.0 mg/kg/injection, schedule: Q07DX002 (ip), vehicle: other) was 72 % of control, the T/C (dose: 100.0 mg/kg/injection, schedule: Q07DX002 (ip), vehicle: other) was 85 % of control and the T/C (dose: 200.0 mg/kg/injection, schedule: Q07DX002 (ip), vehicle: other) was 79 % of control. For the same compound, the T/C (dose: 400.0 mg/kg/injection, schedule: Q07DX002 (ip), vehicle: other) was 91 % of control, the T/C (dose: 800.0 mg/kg/injection, schedule: Q07DX002 (ip), vehicle: other) was 118 % of control and the T/C (dose: 1600.0 mg/kg/injection, schedule: Q07DX002 (ip), vehicle: other) was 88 % of control.

N#CC(=C1C=CC(=NO)C=C1)c1ccc(Cl)cc1 was tested, and the T/C [1] was 72 % of control, the T/C [2] was 100 % of control and the T/C [3] was 103 % of control. For the same compound, the T/C [4] was 46 % of control.

CNc1nc2c(N)ncnc2n1C1OC(CO)C(O)C1O (centres undefined) was tested, and the T/C [5] was 103 % of control.

In the case of CN(C)CCC(=O)C(=Cc1ccc(O)cc1)C(=O)CCN(C)C, the T/C (dose: 25.0 mg/kg/injection, schedule: Q07DX002 (ip), vehicle: saline) is reported as 97 % of control, the T/C [6] is reported as 112 % of control and the T/C [7] is reported as 77 % of control.

With O=C1CN(CN2CCOCC2)C(=O)CN1CN1CCOCC1 the T/C [5] was 115 % of control, the T/C [6] was 116 % of control and 107 % of control and the T/C [7] was 115 % of control. For the same compound, the T/C (dose: 400.0 mg/kg/injection, schedule: Q07DX002 (ip), vehicle: saline) was 50 % of control.

O=C(CN1CCOCC1)Nc1nc(-c2ccc(Cl)cc2)cs1 was tested, and the T/C (dose: 50.0 mg/kg/injection, schedule: Q07DX002 (ip), vehicle: DMSO) was 224 % of control, the T/C (dose: 100.0 mg/kg/injection, schedule: Q07DX002 (ip), vehicle: DMSO) was 292 % of control and the T/C (dose: 200.0 mg/kg/injection, schedule: Q07DX002 (ip), vehicle: DMSO) was 247 % of control. For the same compound, the T/C (dose: 400.0 mg/kg/injection, schedule: Q07DX002 (ip), vehicle: DMSO) was 234 % of control.

BrCC[Se]c1ccccc1 was tested, and the T/C (dose: 6.25 mg/kg/injection, schedule: Q07DX002 (ip), vehicle: saline with Tween-80) was 158 % of control and 177 % of control, the T/C [1] was 100 % of control and 104 % of control and the T/C [8] was 107 % of control. The T/C [9] was 178 % of control.

COc1cc(C(=O)N/N=C/c2cccc([N+](=O)[O-])c2)cc(OC)c1OC was tested, and the T/C [2] was 93 % of control, the T/C [8] was 124 % of control and the T/C [3] was 107 % of control. The T/C [9] was 101 % of control.

In the case of CSc1cc(C)[o+]c(C)c1, the T/C (dose: 25.0 mg/kg/injection, schedule: Q07DX002 (ip), vehicle: Klucel (hydroxypropylcellulose) (HPC)) is reported as 117 % of control, the T/C (dose: 50.0 mg/kg/injection, schedule: Q07DX002 (ip), vehicle: Klucel (hydroxypropylcellulose) (HPC)) is reported as 184 % of control and the T/C (dose: 200.0 mg/kg/injection, schedule: Q07DX002 (ip), vehicle: Klucel (hydroxypropylcellulose) (HPC)) is reported as 108 % of control.

For CN(C)P(=O)(Oc1ccccc1)N(C)C, the T/C [8] was 68 % of control, the T/C [3] was 62 % of control and the T/C [9] was 86 % of control.

For CC(C)(C)N1CC1CNC(=O)C(=O)NCC1CN1C(C)(C)C (centres undefined), the T/C (dose: 3.12 mg/kg/injection, schedule: Q07DX002 (ip), vehicle: saline with Tween-80) was 81 % of control and 106 % of control.

For NCCc1ccc(O)c(O)c1, the T/C (dose: 112.5 mg/kg/injection, schedule: Q07DX002 (ip), vehicle: Klucel (hydroxypropylcellulose) (HPC)) was 122 % of control, the T/C (dose: 225.0 mg/kg/injection, schedule: Q07DX002 (ip), vehicle: Klucel (hydroxypropylcellulose) (HPC)) was 109 % of control and 87 % of control and the T/C (dose: 450.0 mg/kg/injection, schedule: Q07DX002 (ip), vehicle: Klucel (hydroxypropylcellulose) (HPC)) was 113 % of control and 103 % of control. For the same compound, the T/C (dose: 900.0 mg/kg/injection, schedule: Q07DX002 (ip), vehicle: Klucel (hydroxypropylcellulose) (HPC)) was 95 % of control and 97 % of control.

With COC1=C(N)C(=O)c2nc(-c3nc(C(=O)O)c(C)c(-c4ccc(OC)c(OC)c4O)c3N)ccc2C1=O the T/C (dose: 0.05 mg/kg/injection, schedule: Q07DX003 (ip), vehicle: Klucel (hydroxypropylcellulose) (HPC)) was 110 % of control, the T/C (dose: 0.1 mg/kg/injection, schedule: Q07DX003 (ip), vehicle: Klucel (hydroxypropylcellulose) (HPC)) was 93 % of control and the T/C (dose: 0.2 mg/kg/injection, schedule: Q07DX003 (ip), vehicle: Klucel (hydroxypropylcellulose) (HPC)) was 111 % of control. The T/C (dose: 0.4 mg/kg/injection, schedule: Q07DX003 (ip), vehicle: Klucel (hydroxypropylcellulose) (HPC)) was 83 % of control.

With CNc1cccnc1/C=N/NC(N)=S the T/C [2] was 119 % of control, the T/C [8] was 95 % of control and the T/C [9] was 45 % of control and 66 % of control. The T/C [4] was 32 % of control and 33 % of control.
